Experimental data published in the Kinase Knowledgebase extract (Sharma et al. 2016).

What follows are compounds tested against MAPK14 (human) (UniProt Q16539) (assay: Inhibition of MAPK14 Kinase Activity).
Chain of MAPK14 (human) (Q16539 whole entry, looked up): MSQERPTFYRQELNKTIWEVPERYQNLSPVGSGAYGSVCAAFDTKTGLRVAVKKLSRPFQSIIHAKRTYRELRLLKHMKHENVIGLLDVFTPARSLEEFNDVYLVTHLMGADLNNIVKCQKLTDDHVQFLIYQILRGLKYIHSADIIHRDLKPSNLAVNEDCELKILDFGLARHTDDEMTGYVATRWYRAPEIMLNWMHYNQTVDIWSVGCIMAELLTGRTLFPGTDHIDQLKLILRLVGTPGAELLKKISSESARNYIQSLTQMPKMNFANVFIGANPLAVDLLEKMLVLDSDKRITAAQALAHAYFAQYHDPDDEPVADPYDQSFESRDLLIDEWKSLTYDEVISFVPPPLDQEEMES
For `Cc1ccccc1Nc1ccc2c(cnn2CC(C)C)c1`, the IC50 was under 500 nM. `CC(C)Cn1ncc2cc(Nc3ccc(F)cc3F)ccc21` gave an IC50 of under 500 nM. With `CC(C)Cn1ncc2cc(C(=NO)c3ccc(F)cc3)ccc21` the IC50 was under 500 nM. In the case of `COC(=O)C(CCN)NC(=O)c1cc2c(cnn2CC(F)(F)F)cc1Oc1ccc(F)cc1` (stereo not drawn), the IC50 is reported as under 500 nM. For `CON=C(c1ccc2c(cnn2CC(F)(F)F)c1)c1ccc(F)cc1F`, the IC50 was under 500 nM. Work on `COC(=O)C(CCN)NC(=O)c1cc2c(cnn2CC(C)C)cc1Oc1ccc(F)cc1` (stereo not drawn) yielded an IC50 of under 500 nM. `CC(C)Cn1ncc2cc(C(=O)c3ccc(F)cc3Cl)ccc21` gave an IC50 of under 500 nM. Compound `C=CCn1ncc2cc(C(=NO)c3ccc(F)cc3F)ccc21` has an IC50 of under 500 nM. `CC(C)Cn1ncc2cc(C(O)c3ccc(F)cc3Cl)ccc21` (stereo not drawn) showed an IC50 of under 500 nM. For `CC(C)Cn1ncc2cc(C(O)c3ccc(Cl)cc3Cl)ccc21` (stereo not drawn), the IC50 was under 500 nM. Work on `CC(C)Cn1ncc2cc(C(=O)c3ccc(F)cc3F)ccc21` yielded an IC50 of under 500 nM. For `CC(C)Cn1ncc2cc(C(O)c3ccc(Cl)cc3F)ccc21` (stereo not drawn), the IC50 was under 500 nM. Work on `CC(C)Cn1ncc2cc(C(O)c3ccc(F)cc3)ccc21` (stereo not drawn) yielded an IC50 of under 500 nM. For `CC(C)Cn1ncc2cc(C(=O)c3ccc(Cl)cc3Cl)ccc21`, the IC50 was under 500 nM. Compound `CC(C)Cn1ncc2cc(C(=NO)c3ccc(F)cc3F)ccc21` has an IC50 of under 500 nM. Work on `CCON=C(c1ccc2c(cnn2CC(C)C)c1)c1ccc(F)cc1F` yielded an IC50 of under 500 nM. Compound `CC(C)Cn1ncc2cc(Oc3ccc(F)cc3)c(C(N)=O)cc21` has an IC50 of under 500 nM. `CC(C)Cn1ncc2cc(C(=NOCc3ccccc3)c3ccc(F)cc3F)ccc21` showed an IC50 of under 500 nM. Work on `O=C(c1ccc2c(cnn2CC(F)(F)F)c1)c1ccc(F)cc1F` yielded an IC50 of under 500 nM. Compound `C=CCn1ncc2cc(C(=O)c3ccc(F)cc3F)ccc21` has an IC50 of under 500 nM. `CC(C)Cn1ncc2cc(C(=O)c3ccc(F)cc3)ccc21` was tested, and the IC50 was under 500 nM. In the case of `CN(C)CCNC(=O)c1cc2c(cnn2CC(F)(F)F)cc1Oc1ccc(F)cc1`, the IC50 is reported as under 500 nM. With `Cc1ccccc1C(=O)c1ccc2c(cnn2CC(C)C)c1` the IC50 was under 500 nM. `CC(C)Cn1ncc2cc(C(=O)c3ccc(Cl)cc3F)ccc21` gave an IC50 of under 500 nM. Compound `CS(=O)(=O)n1ncc2cc(C(=NO)c3ccc(F)cc3F)ccc21` has an IC50 of under 500 nM. Compound `CC(C)Cn1ncc2cc(C(O)c3ccc(F)cc3F)ccc21` (stereo not drawn) has an IC50 of under 500 nM. In the case of `CON=C(c1ccc(F)cc1)c1ccc2c(cnn2CC(C)C)c1`, the IC50 is reported as under 500 nM. `CC(C)Cn1ncc2cc(Nc3ccc(F)cc3)ccc21` gave an IC50 of under 500 nM. In the case of `Cc1ccccc1C(O)c1ccc2c(cnn2CC(C)C)c1` (stereo not drawn), the IC50 is reported as under 500 nM. Compound `CON=C(c1ccc2c(cnn2S(C)(=O)=O)c1)c1ccc(F)cc1F` has an IC50 of under 500 nM. `CCON=C(c1ccc(F)cc1)c1ccc2c(cnn2CC(C)C)c1` gave an IC50 of under 500 nM. `CC(C)Cn1ncc2cc(Oc3ccc(F)cc3)c(C(=O)NCCN(C)C)cc21` showed an IC50 of under 500 nM. `ON=C(c1ccc2c(cnn2CC(F)(F)F)c1)c1ccc(F)cc1F` gave an IC50 of under 500 nM.
